Calls of active or inactive are those of the source. The calls are words filed in the database; no cut-off is given here.
How the values were obtained:
HEK293 = assay: Activation of Neuropeptide S receptor I107 mutant expressed in HEK293 cells assessed as increase in transcriptional activity after 24 hrs by luciferase reporter gene-based lactate dehydrogenase assay; assay type: cell-based
[1] = target: Protein Wnt-3a (Mus musculus) (UniProt P27467); assay: Activation of mouse Wnt3a signaling expressed in HEK293 STF cells assessed as increase in transcriptional activity after 24 hrs by luciferase reporter gene-based lactate dehydrogenase assay; assay type: cell-based
Chain of Protein Wnt-3a (Mus musculus) (P27467 whole entry): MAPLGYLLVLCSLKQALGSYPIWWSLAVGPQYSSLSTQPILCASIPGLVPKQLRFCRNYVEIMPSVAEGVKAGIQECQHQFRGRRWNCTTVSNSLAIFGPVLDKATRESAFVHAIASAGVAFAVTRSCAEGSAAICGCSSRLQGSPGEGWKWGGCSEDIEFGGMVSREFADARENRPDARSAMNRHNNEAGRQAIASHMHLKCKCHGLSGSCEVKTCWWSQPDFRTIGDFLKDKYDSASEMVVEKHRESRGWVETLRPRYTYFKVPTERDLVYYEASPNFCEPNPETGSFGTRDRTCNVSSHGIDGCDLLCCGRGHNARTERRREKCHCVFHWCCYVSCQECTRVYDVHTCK

Row | Compound | Activity (HEK293) | Activity [1]
1 | O=C(NCCSSCCNC(=O)/C(Cc1ccc(O)c(Br)c1)=N/O)/C(Cc1ccc(O)c(Br)c1)=N/O | Active | Active
2 | CC(/C=C/C(=O)NO)=C\[C@@H](C)C(=O)c1ccc(N(C)C)cc1 | – | Active
3 | O=C(CCCCCCC(=O)Nc1ccccc1)NO | – | Active
4 | Nc1ccccc1NC(=O)c1ccc(CNC(=O)OCc2cccnc2)cc1 | – | Active
